Reference: ChEMBL document CHEMBL3853280, “Unexpected Metabolic Versatility in a Combined Fungal Fomannoxin/Vibralactone Biosynthesis” (2016)
Values after ≈ are worked out from the molar mass of the structure shown.

Assays:
Type in all cases: functional
[1] = Antifungal activity against Penicillium notatum by broth dilution assay; details: Penicillium chrysogenum
Aspergillus fumigatus = test: Antifungal activity against Aspergillus fumigatus by broth dilution assay
Trichophyton benhamiae = test: Antifungal activity against Arthroderma benhamiae by broth dilution assay

Row | SMILES | MIC [1] [µg/mL] | MIC (Aspergillus fumigatus) [µg/mL] | MIC (Trichophyton benhamiae) [µg/mL]
1 | CC(C)=C/C=C/C=C1\CCOC1=O | 25 (≈ 140 µM) | > 100 | 12.5 (≈ 70.1 µM)
2 | C=C(C)COc1ccc(C(=O)OC)cc1C=O | 25 (≈ 107 µM) | 50 (≈ 213 µM) | 6.25 (≈ 26.7 µM)
3 | C=C(C)COc1ccc(C(=O)OC)cc1CO | 25 (≈ 106 µM) | > 100 | 25 (≈ 106 µM)
4 | COC(=O)c1ccc(OC=C(C)C)c(CO)c1 | 25 (≈ 106 µM) | 50 (≈ 212 µM) | 6.25 (≈ 26.5 µM)
5 | CC1=CC=C(CC2CCOC2=O)C(=O)OC1 (centres undefined) | 25 (≈ 112 µM) | > 100 | > 100

More lines, in order of falling MIC [1], values ahead:

Row | MIC [1] [µg/mL] | MIC (Aspergillus fumigatus) [µg/mL] | MIC (Trichophyton benhamiae) [µg/mL] | SMILES
6 | 25 (≈ 120 µM) | > 100 | 50 (≈ 240 µM) | CC(C)=CC[C@@]12C=C(CO)C[C@@H]1OC2=O
7 | 25 (≈ 99.9 µM) | > 100 | 50 (≈ 200 µM) | CC(=O)OCC1=C[C@@]2(CC=C(C)C)C(=O)O[C@H]2C1
8 | 25 (≈ 121 µM) | > 100 | 100 (≈ 485 µM) | COC(=O)c1ccc(OC=C(C)C)cc1
